Structures can show the parent of a compound that is named as a salt.
Target: human tryptase
Experiment: Inhibition of human tryptase (apparent dissociation constant, chromogenic substrate tos-Gly-Pro-arg-pNA)
Type: biochemical
Details: apparent dissociation constant in presence of substrate; heparin 0.1–50 μg/ml; equilibrium conditions; read-out: Kiapp
Source text: The documented pathophysiological effects of mast cell tryptase are caused directly by the enzymatic activity of the protease. Accordingly, they are reduced or blocked by inhibitors which inhibit the enzymatic activity of the tryptase. A suitable measure for the affinity of a reversible inhibitor to the target protease is the equilibrium dissociation constant Ki of the enzyme-inhibitor complex. This Ki value can be determined via the effect of the inhibitor on the tryptase-induced cleavage of a chromogenic peptide-p-nitroanilide substrate or a fluorogenic peptide-aminomethylcoumarin substrate.
The dissociation constants for the tryptase-inhibitor complexes are determined under equilibrium conditions in accordance with the general proposals of Bieth (Bieth J G, Pathophysiological Interpretation of kinetic constants of protease inhibitors, Bull. Europ. Physiopath. Resp. 16:183–195, 1980) and the methods of Sommerhoff et al. (Sommerhoff C P et al., A Kazal-type inhibitor of human mast cell tryptase: Isolation from the medical leech Hirudo medicinalis, characterization, and sequence analysis, Biol. Chem. Hoppe-Seyler 375: 685–694, 1994).
Human tryptase is isolated from lung tissue or prepared recombinantly; the specific activity of the protease, determined by titration, is usually greater than 85% of the theoretical value. In the presence of heparin (0.1–50 μg/ml) for stabilizing the protease, constant amounts of the tryptase are incubated with increasing amounts of the inhibitors. After an equilibrium between the reaction partners has formed, the remaining enzyme activity after addition of the peptide-p-nitroanilide substrate tos-Gly-Pro-argpNA is determined and the cleavage of the latter is monitored at 405 nm for 3 min. Alternatively, the remaining enzymatic activity can also be determined using fluorogenic substrates. The apparent dissociation constants Kiapp (i.e. in the presence of substrate) are subsequently determined by adapting the enzyme rates to the general equation for reversible inhibitors (Morrison J F, Kinetics of the reversible inhibition of enzyme-catalyzed reactions by tight-binding inhibitors, Biochim. Biophys. Acta 185, 269–286, 1969) using non-linear regression: V1/V0=1−{Et+It+Kiapp−[(Et+It+Kiapp)^2−4EtIt]^1/2}/2Et V1 and V0 are the rates in the presence and absence, respectively, of the inhibitor, and Et and It are the tryptase and inhibitor concentrations, respectively.
The apparent dissociation constants determined for the compounds according to the invention are shown in Table A below, where the numbers of the compounds correspond to the numbers of the compounds in the examples.

Row | SMILES | Ki [nM]
1 | NCC1CCC(C(=O)N2CCN(C(=O)OCC#Cc3ccc(C#CCOC(=O)N4CCN(C(=O)C5CCC(CN)CC5)CC4)cc3)CC2)CC1 (stereo not drawn) [Compound 1, 1,4-Bis[4-(trans-4-aminomethylcyclohexylcarbonyl)-1-piperazinylcarbonyl-1-oxyprop-2-ynyl]benzene Dihydrochloride] | 3
2 | NCc1ccc(CNC(=O)N2CCN(C(=O)OCC#Cc3cccc(C#CCOC(=O)N4CCN(C(=O)NCc5ccc(CN)cc5)CC4)c3)CC2)cc1 [Compound 2, 1,3-Bis[4-(4-aminomethylbenzylaminocarbonyl)-1-piperazinylcarbonyl-1-oxyprop-2-ynyl]-benzene Dihydrochloride] | 10
3 | NC[C@H]1CC[C@H](C(=O)N2CCN(C(=O)OCC#Cc3ccccc3C#CCOC(=O)N3CCN(C(=O)[C@H]4CC[C@H](CN)CC4)CC3)CC2)CC1 [Compound 3, 1,2-Bis[4-(trans-4-aminomethylcyclohexylcarbonyl)-1-piperazinylcarbonyl-1-oxyprop-2-ynyl]benzene Dihydrochloride] | 200
4 | NCc1ccc(CNC(=O)N2CCN(C(=O)OCC#Cc3ccccc3C#CCOC(=O)N3CCN(C(=O)NCc4ccc(CN)cc4)CC3)CC2)cc1 [Compound 4, 1,2-Bis[4-(4-aminomethylbenzylaminocarbonyl)-1-piperazinylcarbonyl-1-oxyprop-2-ynyl]-benzene Dihydrochloride] | 3
5 | NCc1ccc(CNC(=O)OCC#Cc2cccc(C#CCOC(=O)NCc3ccc(CN)cc3)c2)cc1 [Compound 5, 1,3-Bis-(4-aminomethylbenzylaminocarbonyl-1-oxyprop-2-ynyl)-benzene Dihydrochloride] | 32
6 | NCc1ccc(CNC(=O)OCC#Cc2ccccc2C#CCOC(=O)NCc2ccc(CN)cc2)cc1 [Compound 6, 1,2-Bis-(4-aminomethylbenzylaminocarbonyl-1-oxyprop-2-ynyl)-benzene Dihydrochloride] | 300
7 | NCc1ccc(CNC(=O)OCC#Cc2cscc2C#CCOC(=O)NCc2ccc(CN)cc2)cc1 [Compound 7, 3,4-Bis-(4-aminomethylbenzylaminocarbonyl-1-oxyprop-2-ynyl)-thiophene Dihydrochloride] | 120
8 | NCc1ccc(CNC(=O)OCC#Cc2ccc(C#CCOC(=O)NCc3ccc(CN)cc3)o2)cc1 [Compound 8, 2,5-Bis-(4-aminomethylbenzylaminocarbonyl-1-oxyprop-2-ynyl)-furan Dihydrochloride] | 80
9 | NCc1cccc(CNC(=O)OCC#Cc2ccc(C#CCOC(=O)NCc3cccc(CN)c3)o2)c1 [Compound 9, 2,5-Bis-(3-aminomethylbenzylaminocarbonyl-1-oxyprop-2-ynyl)-furan Dihydrochloride] | 7.5
10 | NCc1cccc(CNC(=O)OCC#Cc2cscc2C#CCOC(=O)NCc2cccc(CN)c2)c1 [Compound 10, 3,4-Bis-(3-aminomethylbenzylaminocarbonyl-1-oxyprop-2-ynyl)-thiophene Dihydrochloride] | 150
11 | NCc1ccc(CNC(=O)COCC#Cc2ccc(C#CCOCC(=O)NCc3ccc(CN)cc3)cc2)cc1 [Compound 11, 1,4-Bis-(4-aminomethylbenzylaminocarbonylmethyl-1-oxyprop-2-ynyl)-benzene Dihydrochloride] | 30
12 | NCc1ccc(CNC(=O)COCC#Cc2cccc(C#CCOCC(=O)NCc3ccc(CN)cc3)c2)cc1 [Compound 12, 1,3-Bis-(4-aminomethylbenzylaminocarbonylmethyl-1-oxyprop-2-ynyl)-benzene Dihydrochloride] | 13
13 | NCc1ccc(CC(=O)C#CC(N)c2ccc(C(N)C#CC(=O)Cc3ccc(CN)cc3)cc2)cc1 (centres unmarked) [Compound 13, 1,4-Bis-(4-aminomethylbenzylcarbonyl-1-aminoprop-2-ynyl)-benzene Dihydrochloride] | 130
14 | NCc1ccc(CC(=O)C#CC(N)c2ccccc2C(N)C#CC(=O)Cc2ccc(CN)cc2)cc1 (centres unmarked) [Compound 14, 1,2-Bis-(4-aminomethylbenzylcarbonyl-1-aminoprop-2-ynyl)-benzene Dihydrochloride] | 330
